Data taken from US8541588B2, “Sulfonamide derivatives” (Pfizer Limited, priority 2009, dated 2013).

target: T1, Nav1.7 (or SCN9A) channel; HEK cells stably transfected with hSCN9A (Homo sapiens, UniProt Q15858); experiment: Nav1.7 block, PatchXpress 7000 automated whole-cell voltage clamp, estimated IC50 (EIC50); type: cell-based; conditions: estimated IC50; hSCN9A HEK cells, PatchXpress platform; Examples 283-814
T1 construct: expressed in transfected cells
T1 sequence (Q15858 whole entry): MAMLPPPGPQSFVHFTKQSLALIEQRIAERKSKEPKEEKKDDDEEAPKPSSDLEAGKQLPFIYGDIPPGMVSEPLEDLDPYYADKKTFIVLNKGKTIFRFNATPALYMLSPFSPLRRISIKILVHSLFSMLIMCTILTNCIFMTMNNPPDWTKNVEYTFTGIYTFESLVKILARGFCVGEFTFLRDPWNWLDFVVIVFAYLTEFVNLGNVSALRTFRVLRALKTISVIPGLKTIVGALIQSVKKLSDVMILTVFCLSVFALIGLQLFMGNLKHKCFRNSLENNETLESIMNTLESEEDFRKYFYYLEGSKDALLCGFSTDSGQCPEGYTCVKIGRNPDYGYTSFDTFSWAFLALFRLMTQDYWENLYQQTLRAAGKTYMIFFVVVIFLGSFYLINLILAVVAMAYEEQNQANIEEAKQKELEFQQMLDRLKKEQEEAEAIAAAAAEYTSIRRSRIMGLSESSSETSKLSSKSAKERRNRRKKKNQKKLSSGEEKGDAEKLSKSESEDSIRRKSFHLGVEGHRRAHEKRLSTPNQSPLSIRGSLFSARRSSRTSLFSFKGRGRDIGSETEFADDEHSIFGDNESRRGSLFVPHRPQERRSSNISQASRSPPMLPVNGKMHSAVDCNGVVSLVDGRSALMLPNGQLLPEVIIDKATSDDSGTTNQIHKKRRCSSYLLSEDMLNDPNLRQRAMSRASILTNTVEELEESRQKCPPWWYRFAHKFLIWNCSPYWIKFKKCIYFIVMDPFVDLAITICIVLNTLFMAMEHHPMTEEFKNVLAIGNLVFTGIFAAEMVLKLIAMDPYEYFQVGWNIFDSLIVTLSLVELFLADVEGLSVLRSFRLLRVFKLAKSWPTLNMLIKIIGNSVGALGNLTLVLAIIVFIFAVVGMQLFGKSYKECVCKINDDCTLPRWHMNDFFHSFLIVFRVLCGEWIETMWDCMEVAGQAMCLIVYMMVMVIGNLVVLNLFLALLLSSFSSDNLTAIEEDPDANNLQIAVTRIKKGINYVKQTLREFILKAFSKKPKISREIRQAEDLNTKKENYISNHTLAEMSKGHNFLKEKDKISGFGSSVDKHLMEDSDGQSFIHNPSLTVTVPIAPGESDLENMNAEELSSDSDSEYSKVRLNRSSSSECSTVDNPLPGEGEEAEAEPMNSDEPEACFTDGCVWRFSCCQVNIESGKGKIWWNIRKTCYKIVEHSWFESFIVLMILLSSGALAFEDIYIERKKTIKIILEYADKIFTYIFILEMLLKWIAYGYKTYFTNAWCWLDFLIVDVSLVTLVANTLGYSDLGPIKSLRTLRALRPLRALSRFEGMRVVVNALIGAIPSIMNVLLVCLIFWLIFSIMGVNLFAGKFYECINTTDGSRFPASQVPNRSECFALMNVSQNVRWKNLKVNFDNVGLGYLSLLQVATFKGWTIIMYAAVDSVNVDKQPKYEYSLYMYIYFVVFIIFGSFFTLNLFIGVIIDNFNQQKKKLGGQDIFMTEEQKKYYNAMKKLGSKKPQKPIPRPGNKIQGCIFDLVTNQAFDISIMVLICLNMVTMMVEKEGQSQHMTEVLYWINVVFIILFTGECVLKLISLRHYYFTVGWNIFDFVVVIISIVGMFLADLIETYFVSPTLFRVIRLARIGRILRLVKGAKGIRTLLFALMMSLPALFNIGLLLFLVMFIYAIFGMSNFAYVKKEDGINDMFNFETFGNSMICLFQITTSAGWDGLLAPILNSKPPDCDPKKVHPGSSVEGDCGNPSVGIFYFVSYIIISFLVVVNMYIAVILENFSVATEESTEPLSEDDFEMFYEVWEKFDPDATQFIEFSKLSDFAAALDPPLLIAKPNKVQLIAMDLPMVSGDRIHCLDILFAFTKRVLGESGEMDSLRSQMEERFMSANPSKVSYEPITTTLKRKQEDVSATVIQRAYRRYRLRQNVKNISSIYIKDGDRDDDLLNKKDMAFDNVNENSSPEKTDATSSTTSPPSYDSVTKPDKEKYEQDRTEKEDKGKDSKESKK

Structure (SMILES)	IC50 [µM]
Cc1cccnc1-c1ccc(Oc2ccc(S(=O)(=O)Nc3nccs3)cc2C#N)cc1 [Example 455, 3-cyano-4-[4-(3-methylpyridin-2-yl)phenoxy]-N-1,3-thiazol-2-ylbenzenesulfonamide]	2.3
N#Cc1cc(S(=O)(=O)Nc2nccs2)ccc1Oc1ccc(-c2ncccc2Cl)cc1 [Example 456, 4-[4-(3-chloropyridin-2-yl)phenoxy]-3-cyano-N-1,3-thiazol-2-ylbenzenesulfonamide]	1.9
N#Cc1cc(S(=O)(=O)Nc2nccs2)ccc1Oc1ccc(-c2ncccc2C(F)(F)F)cc1 [Example 457, 3-cyano-N-1,3-thiazol-2-yl-4-{4-[3-(trifluoromethyl)pyridin-2-yl]phenoxy}benzenesulfonamide]	2
N#Cc1cc(S(=O)(=O)Nc2ncns2)cc(F)c1Oc1ccc(F)cc1-c1ccn[nH]1 [Example 459, 3-cyano-5-fluoro-4-[4-fluoro-2-(1H-pyrazol-5-yl)phenoxy]-N-1,2,4-thiadiazol-5-ylbenzenesulfonamide]	0.84
N#Cc1cc(S(=O)(=O)Nc2nccs2)ccc1Oc1ccc(C(F)(F)F)cc1-c1cn[nH]c1 [Example 460, 4-(2-(1H-pyrazol-4-yl)-4-(trifluoromethyl)phenoxy)-3-cyano-N-(thiazol-2-yl)benzenesulfonamide]	0.015
N#Cc1cc(S(=O)(=O)Nc2nccs2)ccc1Oc1ccc(Br)cc1-c1ccn[nH]1 [Example 461, 4-[4-bromo-2-(1H-pyrazol-5-yl)phenoxy]-3-cyano-N-1,3-thiazol-2-ylbenzenesulfonamide]	0.02
Cn1nccc1-c1cc(Cl)ccc1Oc1ccc(S(=O)(=O)Nc2ncc(C(F)(F)F)cn2)cc1C#N [Example 462, 4-[4-chloro-2-(1-methyl-1H-pyrazol-5-yl)phenoxy]-3-cyano-N-[5-(trifluoromethyl)pyrimidin-2-yl]benzenesulfonamide]	51
Cn1nccc1-c1cc(Cl)ccc1Oc1ccc(S(=O)(=O)Nc2ncc(C#N)cn2)cc1C#N [Example 463, 4-[4-chloro-2-(1-methyl-1H-pyrazol-5-yl)phenoxy]-3-cyano-N-(5-cyanopyrimidin-2-yl)benzenesulfonamide]	22
Cn1nccc1-c1cc(Cl)ccc1Oc1ccc(S(=O)(=O)Nc2ncc(Cl)cn2)cc1C#N [Example 464, 4-[4-chloro-2-(1-methyl-1H-pyrazol-5-yl)phenoxy]-N-(5-chloropyrimidin-2-yl)-3-cyanobenzenesulfonamide]	6
Cn1nccc1-c1cc(Cl)ccc1Oc1ccc(S(=O)(=O)Nc2ncc(F)cn2)cc1C#N [Example 465, 4-[4-chloro-2-(1-methyl-1H-pyrazol-5-yl)phenoxy]-3-cyano-N-(5-fluoropyrimidin-2-yl)benzenesulfonamide]	1
Cn1nccc1-c1cc(Cl)ccc1Oc1ccc(S(=O)(=O)Nc2ccc(C#N)cn2)cc1C#N [Example 466, 4-[4-chloro-2-(1-methyl-1H-pyrazol-5-yl)phenoxy]-3-cyano-N-(5-cyanopyridin-2-yl)benzenesulfonamide]	36
Nc1[nH]ncc1-c1cc(Cl)ccc1Oc1cc(F)c(S(=O)(=O)Nc2ncc(Cl)s2)cc1F [Example 467, 4-[2-(5-amino-1H-pyrazol-4-yl)-4-chlorophenoxy]-N-(5-chloro-1,3-thiazol-2-yl)-2,5-difluorobenzenesulfonamide]	0.0096
Cn1nccc1-c1cc(C(F)(F)F)ccc1Oc1cc(F)c(S(=O)(=O)Nc2ncns2)cc1F [Example 468, 2,5-difluoro-4-[2-(1-methyl-1H-pyrazol-5-yl)-4-(trifluoromethyl)phenoxy]-N-1,2,4-thiadiazol-5-ylbenzenesulfonamide]	0.029
N#Cc1cc(S(=O)(=O)Nc2nccs2)ccc1Oc1ccc(-n2cccn2)cc1 [Example 469, 3-cyano-4-[4-(1H-pyrazol-1-yl)phenoxy]-N-1,3-thiazol-2-ylbenzenesulfonamide]	3.3
Cc1cn(C)nc1-c1ccc(Oc2ccc(S(=O)(=O)Nc3nccs3)cc2C#N)cc1 [Example 470, 3-cyano-4-[4-(1,4-dimethyl-1H-pyrazol-3-yl)phenoxy]-N-1,3-thiazol-2-ylbenzenesulfonamide]	3.4
Cc1cn(C(F)F)nc1-c1ccc(Oc2ccc(S(=O)(=O)Nc3nccs3)cc2C#N)cc1 [Example 471, 3-cyano-4-{4-[1-(difluoromethyl)-4-methyl-1H-pyrazol-3-yl]phenoxy}-N-1,3-thiazol-2-ylbenzenesulfonamide]	2.7
Cn1nc(C(F)(F)F)cc1-c1cc(F)c(F)c(Oc2ccc(S(=O)(=O)Nc3nccs3)cc2C#N)c1 [Example 472, 3-cyano-4-{2,3-difluoro-5-[1-methyl-3-(trifluoromethyl)-1H-pyrazol-5-yl]phenoxy}-N-1,3-thiazol-2-ylbenzenesulfonamide]	0.97
CCn1nc(C(F)(F)F)cc1-c1ccc(Oc2ccc(S(=O)(=O)Nc3ncns3)cc2Cl)cc1 [Example 473, 3-chloro-4-{4-[1-ethyl-3-(trifluoromethyl)-1H-pyrazol-5-yl]phenoxy}-N-1,2,4-thiadiazol-5-ylbenzenesulfonamide]	0.072

Structure (SMILES)	IC50 [µM]
CC(C)(C)n1nccc1-c1cc(Cl)ccc1Oc1ccc(S(=O)(=O)Nc2ncns2)cc1Cl [Example 474, 4-[2-(1-tert-butyl-1H-pyrazol-5-yl)-4-chlorophenoxy]-3-chloro-N-1,2,4-thiadiazol-5-ylbenzenesulfonamide]	0.044
O=S(=O)(Nc1ncns1)c1ccc(Oc2ccc(Cl)cc2-c2ccn[nH]2)c(Cl)c1 [Example 475, 3-chloro-4-[4-chloro-2-(1H-pyrazol-5-yl)phenoxy]-N-1,2,4-thiadiazol-5-ylbenzenesulfonamide]	0.0075
CC(C)(C)n1nccc1-c1cc(F)ccc1Oc1ccc(S(=O)(=O)Nc2ncns2)cc1Cl [Example 476, 4-[2-(1-tert-butyl-1H-pyrazol-5-yl)-4-fluorophenoxy]-3-chloro-N-1,2,4-thiadiazol-5-ylbenzenesulfonamide]	0.17
O=S(=O)(Nc1ncns1)c1ccc(Oc2ccc(Cl)cc2C2CCNCC2)c(Cl)c1 [Example 477, 3-chloro-4-(4-chloro-2-piperidin-4-ylphenoxy)-N-1,2,4-thiadiazol-5-ylbenzenesulfonamide]	0.016
O=S(=O)(Nc1ncns1)c1ccc(Oc2ccc(F)cc2-c2ccn[nH]2)c(Cl)c1 [Example 478, 3-chloro-4-[4-fluoro-2-(1H-pyrazol-5-yl)phenoxy]-N-1,2,4-thiadiazol-5-ylbenzenesulfonamide]	0.044
CCn1nc(C(F)(F)F)cc1-c1cccc(Oc2ccc(S(=O)(=O)Nc3ncc(F)s3)cc2C#N)c1 [Example 479, 3-cyano-4-{3-[1-ethyl-3-(trifluoromethyl)-1H-pyrazol-5-yl]phenoxy}-N-(5-fluoro-1,3-thiazol-2-yl)benzenesulfonamide]	0.23
N#Cc1cc(S(=O)(=O)Nc2nccs2)ccc1Oc1ccc(-c2cc(C(F)(F)F)n(CCCF)n2)cc1F [Example 480, 3-cyano-4-{2-fluoro-4-[1-(3-fluoropropyl)-5-(trifluoromethyl)-1H-pyrazol-3-yl]phenoxy}-N-1,3-thiazol-2-ylbenzenesulfonamide]	>1
Cc1cc(-c2cccc(Oc3ccc(S(=O)(=O)Nc4nccs4)cc3C#N)c2)n(CCN(C)C)n1 [Example 481, 3-cyano-4-(3-{1-[2-(dimethylamino)ethyl]-3-methyl-1H-pyrazol-5-yl}phenoxy)-N-1,3-thiazol-2-ylbenzenesulfonamide]	1.7
N#Cc1cc(S(=O)(=O)Nc2nccs2)ccc1Oc1ccc(-c2cn(CC(F)(F)F)nc2N)cc1 [Example 482, 4-{4-[3-amino-1-(2,2,2-trifluoroethyl)-1H-pyrazol-4-yl]phenoxy}-3-cyano-N-1,3-thiazol-2-ylbenzenesulfonamide]	>1
Cn1cc(-c2ccc(Oc3ccc(S(=O)(=O)Nc4nccs4)cc3C#N)cc2)c(N)n1 [Example 483, 4-[4-(3-amino-1-methyl-1H-pyrazol-4-yl)phenoxy]-3-cyano-N-1,3-thiazol-2-ylbenzenesulfonamide]	>1
CC1CN(c2ccc(Oc3ccc(S(=O)(=O)Nc4nccs4)cc3C#N)cc2)C(=O)N1 (stereo not drawn) [Example 484, 3-cyano-4-[4-(4-methyl-2-oxoimidazolidin-1-yl)phenoxy]-N-1,3-thiazol-2-ylbenzenesulfonamide]	>1
CC(C)C1CN(c2ccc(Oc3ccc(S(=O)(=O)Nc4nccs4)cc3C#N)cc2)C(=O)N1 (stereo not drawn) [Example 485, 3-cyano-4-[4-(4-isopropyl-2-oxoimidazolidin-1-yl)phenoxy]-N-1,3-thiazol-2-ylbenzenesulfonamide]	>1
N#Cc1cc(S(=O)(=O)Nc2nccs2)ccc1Oc1ccc(N2CCNC2=O)cc1 [Example 486, 3-cyano-4-[4-(2-oxoimidazolidin-1-yl)phenoxy]-N-1,3-thiazol-2-ylbenzenesulfonamide]	>1
CN1CCN(c2ccc(Oc3ccc(S(=O)(=O)Nc4nccs4)cc3C#N)cc2)C1=O [Example 487, 3-cyano-4-[4-(3-methyl-2-oxoimidazolidin-1-yl)phenoxy]-N-1,3-thiazol-2-ylbenzenesulfonamide]	>1
N#Cc1cc(S(=O)(=O)Nc2nccs2)ccc1Oc1ccc(N2CCCC2=O)cc1 [Example 488, 3-cyano-4-[4-(2-oxopyrrolidin-1-yl)phenoxy]-N-1,3-thiazol-2-ylbenzenesulfonamide]	>1
CCc1cc(-n2cccn2)ccc1Oc1ccc(S(=O)(=O)Nc2nccs2)cc1C#N [Example 489, 3-cyano-4-[2-ethyl-4-(1H-pyrazol-1-yl)phenoxy]-N-1,3-thiazol-2-ylbenzenesulfonamide]	1.2
CCc1cc(-n2ccc(C(F)(F)F)n2)ccc1Oc1ccc(S(=O)(=O)Nc2nccs2)cc1C#N [Example 490, 3-cyano-4-{2-ethyl-4-[3-(trifluoromethyl)-1H-pyrazol-1-yl]phenoxy}-N-1,3-thiazol-2-ylbenzenesulfonamide]	0.66
N#Cc1cc(S(=O)(=O)Nc2nccs2)ccc1Oc1ccc(-n2cccn2)cc1C(F)(F)F [Example 491, 3-cyano-4-[4-(1H-pyrazol-1-yl)-2-(trifluoromethyl)phenoxy]-N-1,3-thiazol-2-ylbenzenesulfonamide]	>1
